We go through 15 compounds from patent US6414029B1, “Vanadium complexes of monohydroxamates and pharmaceutical compositions comprising them” (priority 1997, dated 2002).

Entries after “also recorded” stand apart in the source; their conditions may differ. Read-outs that look alike come from different tables or passages of the source.

In series [1] the test system is rat adipocytes. Kind of series: Lipogenesis bioassay ([U-14C]glucose incorporation into lipids) in rat adipocytes. Format: cell-based. The conditions noted are these: for Percent of maximal effect of insulin, Amino acid-HXM only (10 μM): free amino acid monohydroxamate 10 μM, lipogenesis; for Net Potentiating Effect (%): potentiation of lipogenic capacity of VOCl2 10 μM by equimolar HXM; for Potentiation of the insulinomimetic (lipogenic) efficacy of VOCl2, in words / Synergizing effect relative to that exerted by Glu(γ)HXM: vanadium (+4); for Potentiation of the insulinomimetic (lipogenic) efficacy of VOCl2, in words: equimolar HXM; for Synergizing effect relative to that exerted by Glu(γ)HXM: 1:1 molar ratio. The protocol: The fat pads of male Wistar rats were cut into small pieces with scissors and suspended in 3 ml of KRB buffer. […] Five ml of buffer was then added, and the cells were passed through a mesh screen. The cells were then allowed to stand for several minutes in a 15-ml plastic test tube at room temperature, floating, and the buffer underneath was removed. This procedure (suspension, floating, and removal of buffer underneath) was repeated three times.
In the lipogenic assay, for measurement of glucose uptake and its incorporation into lipids (lipogenesis), the adipocyte suspensions (3×10^5 cells/ml) were divided into plastic vials (0.5 ml per vial) and incubated for 60 min at 37° C. under an atmosphere of carbogen with 0.2 mM [U-^14C]glucose (4-7 mCi/mol), in either the absence or presence of insulin (100 ng/ml), and the complexes to be tested.

Series [2] relates to adipocytes. Kind of series: Hexose influx (2-deoxy-D-[6-3H]glucose) into adipocytes. Format: cell-based, rat. The conditions noted are these: for Hexose influx, in words: two different concentrations (FIG. 4). The protocol:
In order to test the specific effect of free Glu(γ)HXM and the Glu(γ)HXM:NaVO3 (2:1) complex on the entrance of glucose into cells, an in vitro assay was performed using 2-deoxy-D-[6-^3H]glucose (2-DG). 2-DG is a non-metabolized analog of glucose and this assay thus represents the influence of a compound on glucose influx to cells, independent of glucose metabolism.
Aliquots (70 μl) of the aforementioned samples were transferred into tubes that contained 2-deoxy-D-[6-^3H]glucose (0.1 mM final concentration). After 3 minutes, phloretin ([…]) was added in order to terminate the penetration of 2-DG into the cells. Samples of the suspended cells were then transferred to tubes with silicone oil where, upon centrifugation, the cells separate from the KRB medium and leftover 2-DG.

For series [3], the system named is isoproterenol mediated lipolysis. As to the kind of experiment: Inhibition of isoproterenol mediated lipolysis in vitro. The series is classed as cell-based.
Series [4] deals with STZ-rats. As to the kind of experiment: Blood glucose level in streptozocin(STZ)-treated rats. Format: in vivo, rat. The protocol:
(b) Streptozocin(STZ)-treated rats: Diabetes was induced by a single intravenous injection of a freshly prepared solution of streptozocin (55 mg/kg of body weight) in 0.1 M citrate buffer (pH 4.5).
Each group received daily i.p. injections of 0.05 mmol/kg (at 11.00 a.m.), of the corresponding compound.

Series [5] deals with leukemia L1210. The conditions noted are these: in vivo; cited from earlier work.
Series [6] concerns leukemia L1210 cells. To be noted: in vitro; cited from earlier work.
Series [7] concerns vanadium-enriched adipocytes. Kind of series: Lipogenesis in vanadium-enriched versus normal adipocytes. The series is classed as cell-based, rat. To be noted: rats given NaVO3 12 mg/kg/day s.c. for five days (FIG. 8). The protocol: Lipogenesis was performed as described above using free Glu(γ)HXM to compare freshly prepared rat adipocytes (3×10^5 cells/ml) from non-enriched vanadium rats to the enriched-vanadium rats.

In series [8] the test system is melanoma B16 cells. The conditions noted are these: in vivo; cited from earlier work.
Series [9] has as its target InsRTK (Rattus norvegicus, UniProt P15127). To be noted: cited from earlier work.
Series [10] has as its system murine leukemia L5178Y. To be noted: in vitro; cited from earlier work.
Series [11] relates to murine leukemia L5178Y. To be noted: in vivo; cited from earlier work.
The test system of series [12] is Friend leukemia cells. The conditions noted are these: in vitro; cited from earlier work.
Where [13] appears, read: insulin 100 ng/ml, typical experiment.

Chain of InsRTK (P15127 27-1383): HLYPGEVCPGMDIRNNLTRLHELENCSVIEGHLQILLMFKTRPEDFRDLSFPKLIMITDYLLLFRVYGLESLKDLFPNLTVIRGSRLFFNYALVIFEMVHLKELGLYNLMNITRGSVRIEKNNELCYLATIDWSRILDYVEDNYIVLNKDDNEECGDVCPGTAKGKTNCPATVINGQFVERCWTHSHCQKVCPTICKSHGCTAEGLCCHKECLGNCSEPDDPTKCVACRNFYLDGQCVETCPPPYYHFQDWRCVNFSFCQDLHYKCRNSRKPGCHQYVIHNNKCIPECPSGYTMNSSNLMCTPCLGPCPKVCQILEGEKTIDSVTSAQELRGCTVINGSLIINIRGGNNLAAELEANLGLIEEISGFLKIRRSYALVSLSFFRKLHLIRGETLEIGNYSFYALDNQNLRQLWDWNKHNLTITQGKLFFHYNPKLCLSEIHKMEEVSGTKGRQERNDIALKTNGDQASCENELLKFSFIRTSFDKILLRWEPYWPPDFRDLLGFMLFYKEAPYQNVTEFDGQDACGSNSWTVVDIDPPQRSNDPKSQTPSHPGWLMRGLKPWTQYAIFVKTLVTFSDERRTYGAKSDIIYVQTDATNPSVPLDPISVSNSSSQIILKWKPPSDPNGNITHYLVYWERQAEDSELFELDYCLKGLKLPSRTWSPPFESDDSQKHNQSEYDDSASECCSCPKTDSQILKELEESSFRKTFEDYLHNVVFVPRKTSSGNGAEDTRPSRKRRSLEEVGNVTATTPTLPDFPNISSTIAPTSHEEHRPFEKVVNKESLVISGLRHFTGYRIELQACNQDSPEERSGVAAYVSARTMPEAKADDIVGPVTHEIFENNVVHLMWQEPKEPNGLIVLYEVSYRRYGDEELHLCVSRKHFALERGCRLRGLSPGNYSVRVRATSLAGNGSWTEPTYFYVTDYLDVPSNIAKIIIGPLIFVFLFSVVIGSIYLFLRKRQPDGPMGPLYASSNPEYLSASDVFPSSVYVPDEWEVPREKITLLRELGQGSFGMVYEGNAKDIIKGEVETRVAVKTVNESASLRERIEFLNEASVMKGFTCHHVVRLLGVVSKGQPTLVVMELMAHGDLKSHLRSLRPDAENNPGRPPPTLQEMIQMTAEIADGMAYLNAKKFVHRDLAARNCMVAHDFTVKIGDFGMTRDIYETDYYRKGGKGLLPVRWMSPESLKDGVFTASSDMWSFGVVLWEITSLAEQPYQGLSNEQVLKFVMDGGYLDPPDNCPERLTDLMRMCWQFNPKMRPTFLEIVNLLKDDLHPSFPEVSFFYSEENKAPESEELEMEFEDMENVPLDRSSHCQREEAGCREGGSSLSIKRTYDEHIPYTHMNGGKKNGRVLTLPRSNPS

For `NCCCC[C@H](N)C(=O)NO` [Lys-HXM, L-lysine hydroxamate], in [1], the “Percent of maximal effect of insulin, Amino acid-HXM only (10 μM)” value (shortened to “Percent of maximal effect of insulin”) is listed as 0% (−4%) and the “Net Potentiating Effect (%)” value came out at 0%.
With sodium metavanadate [NaVO3], the “Hexose influx, in words” value in series [2] is listed as “stimulate hexose influx”.
As for `N[C@@H](CCC(=O)NO)C(=O)O` [Glu(γ)HXM, L-glutamic acid γ-monohydroxamate], in series [3], the “Isoproterenol mediated lipolysis, in words” value was “inhibition of isoproterenol mediated lipolysis”. Also, the “Elevation of the efficacy of vanadate to lower blood glucose levels” value in series [4] (STZ-treated diabetic rats) is on record as 5-7 fold. Moreover, the “Cytotoxicity, in words” value in series [5], in [6] and in [8] was “cytotoxic” throughout. In addition, the “Glucose entry into cells, magnitude as % of maximal insulin response” value in series [2] (20 and 40 μM, 30 min preincubation (FIG. 4)) was “about 60%”. For the same compound, in series [2], the “Hexose influx, in words” value is given as “stimulate hexose influx”. Besides, in series [7], the “Potentiation of intracellular vanadium in enriched-vanadium rat cells versus normal adipocytes, in words” value is on record as “to a much greater extent”. The “Lipogenesis in the absence of exogeneously added vanadium, in words” value in series [1] (10-100 μM (FIG. 6)) is “activates lipogenesis; also recorded: produce insulin effects”. For the same compound, in series [1], the “Percent of maximal effect of insulin” value is recorded as 22%. The “Activation together with a saturated concentration of insulin, in words” value in series [1] (in vitro) is “additive to maximal effect”. In addition, in [1], the “Net Potentiating Effect (%)” value is recorded as 51%. The “Potentiation of vanadium (+5) in activating glucose metabolism in rat adipocytes” value in series [1] (vanadium (+5)) was 7-10 fold.
Turning to “insulin: Porcine insulin purchased from Eli Lilly Co.”, in series [1] (setting [13]), the “Insulin-stimulated lipogenesis relative to basal” value is 4-5 fold and the Vinsulin was 8,000-10,000 cpm per 3×10^5 cell/h.
As to L-histidine hydroxamate [His-HXM], in series [1], the “Percent of maximal effect of insulin” value was found to be 4% and the “Net Potentiating Effect (%)” value is reported as “˜3%”.
For the compound `CC(C)(N)C(=O)NO` [Aib-HXM, aminoisobutyric acid monohydroxamate], in series [1], the “Percent of maximal effect of insulin” value is 0% (−3%) and the “Net Potentiating Effect (%)” value was determined as 0%.
`N[C@H](CCC(=O)NO)C(=O)O` [D-Glu(γ)HXM, D-glutamic acid γ-monohydroxamate]: in series [1], the “Synergistic action with vanadium, stereospecificity, in words” value is on record as “not facilitated”; the “Percent of maximal effect of insulin” value was 1%; the “Net Potentiating Effect (%)” value is listed as 0%; the “Potentiation of the insulinomimetic (lipogenic) efficacy of VOCl2, in words” value is given as “did not potentiate”.
Take `N[C@@H](CC(=O)NO)C(=O)O` [L-Asp(β)HXM, L-aspartic acid β-monohydroxamate]: in [1], the “Synergizing effect relative to that exerted by Glu(γ)HXM” value was about 85%; the “Percent of maximal effect of insulin” value is listed as 8%; the “Net Potentiating Effect (%)” value was found to be 54%.
`CN[C@@H]1C[C@H]2O[C@@](C)([C@@H]1OC)n1c3ccccc3c3c4c(c5c6ccccc6n2c5c31)C(=O)NC4` [Staurosporine]: in series [9], the Ki is about 1 µM.
Consider `O=C(NO)c1cccnc1` [Nic-HXM, nicotinic acid hydroxamate], for which, in series [1], the “Synergizing effect relative to that exerted by Glu(γ)HXM” value is recorded as about 57%; the “Percent of maximal effect of insulin” value was 11%; the “Net Potentiating Effect (%)” value is reported as 29%.
As to `N[C@@H](Cc1c[nH]c2ccccc12)C(=O)NO` [Trp-HXM, L-tryptophan hydroxamate], in series [1], the “Percent of maximal effect of insulin” value was 2% and the “Net Potentiating Effect (%)” value is reported as “˜9%”.
On to `Cl.Cl.[O]=[V]` [VOCl2, vanadyl chloride], for which, in series [4] (i.p. 0.02 mmol/kg/day, 12 days (FIG. 2)), the “Effect on blood glucose levels of STZ-rats, in words” value is listed as “no significant effect”.
Take `N[C@H](CC(=O)NO)C(=O)O` [D-Asp(β)HXM, D-Aspartic acid β-hydroxamate]: the “Antitumoral activity, in words” value in [10] and in series [11] was “antitumoral activity” throughout. Besides, the “Activity against Friend leukemia cells, in words” value in series [12] is “active”.
For `CC(=O)N[C@@H](CCC(=O)NO)C(=O)O` [N-acetyl Glu(γ)HXM, N-acetyl-L-glutamic acid γ-monohydroxamate], in series [1], the “Percent of maximal effect of insulin” value amounted to 0%; the “Net Potentiating Effect (%)” value came out at 0%; the “Potentiation of the insulinomimetic (lipogenic) efficacy of VOCl2, in words” value is on record as “did not potentiate”.
On to `N=C(N)NCCC[C@H](N)C(=O)NO` [Arg-HXM, L-arginine hydroxamate], for which, in series [1], the “Percent of maximal effect of insulin” value stood at 4% and the “Net Potentiating Effect (%)” value is on record as “˜2%”.
